Measurements: PubChem BioAssay AID2510 (The Scripps Research Institute Molecular Screening Center, 2010)

Target: Mucolipin-3 (Homo sapiens) (UniProt Q8TDD5)
Assay: human mucolipin-3 activators, concentration-response – cell-based, calcium fluorescence, dose response (AID 2510)
Settings: TRPML3-expressing cells, agonist mode

Chain of Mucolipin-3 (Homo sapiens) (Q8TDD5 whole entry, looked up): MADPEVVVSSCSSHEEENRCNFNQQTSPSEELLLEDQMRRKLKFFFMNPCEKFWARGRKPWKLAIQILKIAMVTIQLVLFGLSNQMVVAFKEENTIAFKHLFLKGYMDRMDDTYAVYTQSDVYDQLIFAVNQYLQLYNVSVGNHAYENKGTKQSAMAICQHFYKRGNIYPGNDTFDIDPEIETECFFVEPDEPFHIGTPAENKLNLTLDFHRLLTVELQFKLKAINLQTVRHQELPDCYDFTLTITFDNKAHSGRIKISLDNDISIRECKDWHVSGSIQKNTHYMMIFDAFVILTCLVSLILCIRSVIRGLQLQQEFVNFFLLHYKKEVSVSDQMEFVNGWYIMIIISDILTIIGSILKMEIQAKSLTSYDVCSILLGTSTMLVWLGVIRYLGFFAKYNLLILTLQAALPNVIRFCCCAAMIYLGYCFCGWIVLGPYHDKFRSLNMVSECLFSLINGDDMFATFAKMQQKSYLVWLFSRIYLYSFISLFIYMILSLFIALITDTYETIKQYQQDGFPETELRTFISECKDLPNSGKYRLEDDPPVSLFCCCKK

EC50: 1800 nM
SMILES: CCOc1ccc(S(=O)(=O)N2CCCCC2)c(C)c1C
